These are literature values, as cited in PMC4763008, “Selective Inhibition of Bakuchicin Isolated from Psoralea corylifolia on CYP1A in Human Liver Microsomes” (Evidence-based Complementary and Alternative Medicine : eCAM, 2016).

Molecules are shown by their SMILES.

The target in data set [1] is T1, CYP1A (Homo sapiens, UniProt P05177).
T1 sequence (P05177 2-516): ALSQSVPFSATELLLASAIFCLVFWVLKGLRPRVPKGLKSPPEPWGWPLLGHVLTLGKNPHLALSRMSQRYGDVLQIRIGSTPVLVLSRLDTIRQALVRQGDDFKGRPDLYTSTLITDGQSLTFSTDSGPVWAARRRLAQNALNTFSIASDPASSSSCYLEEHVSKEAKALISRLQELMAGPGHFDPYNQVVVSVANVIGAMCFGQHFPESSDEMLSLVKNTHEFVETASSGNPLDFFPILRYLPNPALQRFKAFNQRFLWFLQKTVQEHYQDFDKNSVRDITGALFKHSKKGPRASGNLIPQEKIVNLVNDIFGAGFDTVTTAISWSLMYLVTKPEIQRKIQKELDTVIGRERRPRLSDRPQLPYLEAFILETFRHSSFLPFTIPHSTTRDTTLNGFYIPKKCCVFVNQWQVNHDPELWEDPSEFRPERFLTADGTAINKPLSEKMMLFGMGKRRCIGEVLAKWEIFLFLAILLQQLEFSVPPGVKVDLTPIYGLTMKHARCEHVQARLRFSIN
The settings on record: human liver microsomes ref 17; cited from earlier work.

For data set [2], the system named is CYP1A. The following applies: rat liver microsomes ref 17; cited from earlier work. A general note: Liver microsomes are vesicles of endoplasmic reticulum, rich in cytochrome P450 enzymes.

Regarding `O=c1ccc2ccc3occc3c2o1` [isopsoralen], the type of inhibitor entry on CYP1A [1] was “reversible and time-dependent inhibitor”; in the data set with CYP1A [2] it was “reversible and time-dependent inhibitor”.
For the compound `O=c1ccc2cc3ccoc3cc2o1` [psoralen], the type of inhibitor result on CYP1A [1] is “reversible and time-dependent inhibitor”; with CYP1A [2] it was “reversible and time-dependent inhibitor”.
